In the test the target is T1, Protein Tyrosine Phosphatase 1B (PTP1B) (Homo sapiens, UniProt P18031).
T1 construct: gene PTPN1; residues 1-322, C-terminal deletion
T1 sequence (P18031 1-322): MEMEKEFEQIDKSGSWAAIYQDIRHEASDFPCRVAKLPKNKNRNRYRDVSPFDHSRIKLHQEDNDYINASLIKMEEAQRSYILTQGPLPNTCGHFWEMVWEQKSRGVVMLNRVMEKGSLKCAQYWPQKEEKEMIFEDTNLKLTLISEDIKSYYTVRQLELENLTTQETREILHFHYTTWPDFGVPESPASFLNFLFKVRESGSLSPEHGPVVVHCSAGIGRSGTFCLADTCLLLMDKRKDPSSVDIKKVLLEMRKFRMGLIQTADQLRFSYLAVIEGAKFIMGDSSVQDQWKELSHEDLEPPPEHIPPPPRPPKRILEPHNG
The test is described as follows: Malachite green phosphate release assay with IR5 phosphopeptide on recombinant human PTP1B. Format: biochemical.

The results in this text go back to article PMC6877102, “A squalamine derivative, NV669, as a novel PTP1B inhibitor: in vitro and in vivo effects on pancreatic and hepatic tumor growth” (Oncotarget, 2019).

As to `CC(C)CCC[C@@H](C)[C@H]1CCC2C3C[C@@H](O)C4=C[C@@H](NCCCNCCCCNCCCN)CC[C@]4(C)C3CC[C@@]21C` (some centres unmarked) [NV669], the “Malachite green phosphate release assay with IR5 phosphopeptide on recombinant h” value was “we found that NV669 blocked significantly in vitro PTP1B activity in a dose- and time-dependent manner”.
Under `CC(C)CCC[C@@H](C)[C@H]1CC[C@H]2[C@@H]3C[C@@H](NCCCNCCCCNCCCN)[C@H]4C[C@@H](O)CC[C@]4(C)[C@H]3CC[C@]12C` [claramine] stands “Like claramine (a PTP1B inhibitor used here as positive control), we found that NV669 blocked significantly in vitro PTP1B activity”.
